Test results reported in PubChem BioAssay AID464 (The Scripps Research Institute Molecular Screening Center, 2006).
Activity calls are given as the source filed them.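 Rule for the calls: active = Compounds that kill half the cells at a concentration of 5 micromolar or below, from the fitted or estimated CC50; inactive = CC50 above 5 micromolar.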

test system: Jurkat E6.1 viability, ATP luminescence, 48 h; experiment: Jurkat E6.1 cell cytotoxicity, CC50 determination, dose response, cytotoxicity control, ATP luminescence, 48 h, 60K MLSMR (AID 464)

Compound | CC50
CCOc1ccc(-c2cc(C(=O)O)c3ccccc3n2)c(OCC)c1 | > 40 µM (inactive)
CS(=O)(=O)N1CCc2cc(S(=O)(=O)Nc3ccc4c(c3)OCCO4)ccc21 | 29.1 µM (inactive)
COc1cccc(C(=O)Nc2ncc3c(n2)CC(c2ccc(OC)cc2OC)CC3=O)c1 (stereo not drawn) | 8.19 µM (inactive)
CC(C)Oc1ccccc1C1CC(=O)Nc2cc3c(cc21)OCCO3 (stereo not drawn) | 0.576 µM
COc1cccc(-c2cc(C(=O)Nc3cc(OC)c(OC)c(OC)c3)no2)c1 | 8.79 µM (inactive)
Cc1c(C(=O)OCc2ccccc2)[nH]c2c1C(=O)CC(c1ccco1)C2 (stereo not drawn) | 0.499 µM
O=C(Nc1nc(-c2ccccn2)cs1)c1ccc(Cl)s1 | 2.12 µM
CC(Oc1ccc(Cl)cc1Cl)C(=O)Nc1ccncc1 (stereo not drawn) | 7.07 µM (inactive)
COc1cc(C(Nc2ccccn2)c2ccc3ccc(C)nc3c2O)cc(OC)c1O (stereo not drawn) | 6.78 µM (inactive)
COc1cc(C2Nc3ccc4ncccc4c3C3=C2C(=O)CCC3)cc(OC)c1O (stereo not drawn) | 6.15 µM (inactive)
CCCc1cc(C(=O)Nc2cc(Br)ccc2O)no1 | > 40 µM (inactive)
CNc1nc(C)c(C(=O)OCc2ccccc2)s1 | 9.81 µM (inactive)
CN1/C(=C/C(=O)c2nc(S(C)(=O)=O)ncc2Cl)C(C)(C)c2ccccc21 | > 13 µM (inactive)
CC(C)(C)n1ncc2c(=O)n(CC(=O)NCc3ccc(F)cc3)cnc21 | 5.13 µM (inactive)
Cn1c(=O)c2c(nc(NCCO)n2CCc2ccccc2)n(C)c1=O | 9.41 µM (inactive)
CCOC(=O)c1[nH]c(C)c(C(=O)Nc2ccccc2C)c1C | 0.63 µM
CCCC(=O)Nc1nc2ccc(S(=O)(=O)N3CCCCC3)cc2s1 | 2.82 µM
CN(CC1CCCO1)S(=O)(=O)c1ccc(C(=O)Nc2nc(-c3ccccn3)cs2)cc1 (stereo not drawn) | 10.5 µM (inactive)
O=C(Nc1ccc2oc(Cc3ccc(Cl)cc3)nc2c1)c1cccnc1 | 27.8 µM (inactive)
CCOc1ccc(C2=Nn3c(nnc3-c3ccc(OC)cc3)SC2)cc1 | 0.841 µM
CCn1nc(-c2cccs2)nc2c(=O)n(C)c(=O)nc1-2 | > 40 µM (inactive)
CCC1CCCCN1S(=O)(=O)c1ccc(C(=O)Nc2nnc(-c3cccs3)o2)cc1 (stereo not drawn) | 11.6 µM (inactive)

Compound | CC50
Cc1cc(Cl)ccc1OCCCC(=O)NO | 8.2 µM (inactive)
COc1cc(Cn2c(-c3nonc3N)nc3ccccc32)ccc1C | 1.55 µM
Cn1nc(-c2ccc(OCC(=O)N3CCN(Cc4ccccc4)CC3)cc2)c2ccccc2c1=O | 9.14 µM (inactive)
CCOC(=O)C1=C(CNCc2ccc(C)cc2)NC(=O)NC1c1ccc(OC)cc1 (stereo not drawn) | > 40 µM (inactive)
CCCCN(C)S(=O)(=O)c1ccc(C(=O)Nc2nnc(-c3cccs3)o2)cc1 | 14.1 µM (inactive)
COc1ccccc1N1CCN(Cc2cc(Br)c(O)c3ncccc23)CC1 | 7.73 µM (inactive)
Cc1conc1NC(c1cccs1)c1ccc2cccnc2c1O (stereo not drawn) | > 13 µM (inactive)
Cc1ccccc1-n1ncc2c(SCC(=O)NCc3cccs3)ncnc21 | 5.39 µM (inactive)
Cc1cccc(N2CCN(C(=O)c3ccc(Cl)c(S(=O)(=O)NCc4ccco4)c3)CC2)c1C | 9.8 µM (inactive)
CCOc1ccccc1NC(=O)CN(c1ccc(OC)cc1)S(=O)(=O)c1c(C)noc1C | 1.37 µM
Cc1ccc2c(CC(=O)NCc3ccco3)coc2c1C | 7.99 µM (inactive)
Cc1cc(/C=N/n2cnnc2)c(C)n1-c1ccc(OCc2ccc(F)cc2)cc1 | > 13 µM (inactive)
Cc1nn(Cc2ccccc2Cl)c(C)c1C(=O)Nc1nnc(C2CC2)s1 | > 40 µM (inactive)
O=C(Cn1cnc2c(cnn2-c2ccc(F)cc2)c1=O)NCc1ccco1 | > 4.4 µM (inactive)
CC1(C)Cc2nc3sc4c(SCC(=O)NCc5ccco5)ncnc4c3cc2CO1 | 18 µM (inactive)
O=c1c2cc3ccccc3n2cnn1Cc1ccccc1F | 16.4 µM (inactive)
O=C(c1cccc(F)c1)N1CCN(c2cccc(Cl)c2)CC1 | 4.55 µM
CCNc1nc2c(c(=O)n(C)c(=O)n2C)n1Cc1ccc(Cl)cc1 | 4.09 µM
Cc1ccc(-c2nc(-c3ccccn3)no2)cc1 | 10.3 µM (inactive)
CN1CCN(Cc2cc(COCc3ccccc3)c3cccnc3c2O)CC1 | 10.5 µM (inactive)
COc1ccc(OC)c(Nc2cc(-c3ccccc3)nc(N)n2)c1 | 0.699 µM
Cc1ccc2c(c1)nnn2C1CCN(S(=O)(=O)c2ccc(C(=O)N3C(C)CCCC3C)cc2)CC1 (stereo not drawn) | 9.39 µM (inactive)

Compound | CC50
Cc1cc2c(N=O)c(NO)ccc2[nH]1 | 1.97 µM
COc1ccc(CNC(=O)c2cc3c(C)nc4ccccc4c3o2)c(OC)c1 | > 40 µM (inactive)
CC1(C)CC(=O)C2=C(C1)OC1=C(C(=O)CC(C)(C)C1)C2c1ccc(O)cc1O | 2.39 µM
CCOc1ccc2nc(NC(=O)c3ccoc3C)sc2c1 | 12.6 µM (inactive)
Cc1ccc(S(=O)(=O)C2(S(=O)(=O)c3ccc(C)cc3)CCCC2)cc1 | 3.23 µM
COC(=O)Nc1ccc(S(=O)(=O)N2c3ccccc3CCC2C)cc1 (stereo not drawn) | 2.19 µM
Cc1cc(C)nc(SCC(=O)Nc2ccc(N3CCOCC3)c(Cl)c2)n1 | 5.6 µM (inactive)
COc1ccc(CNc2cc(C)nc3ncnn23)c(OC)c1 | 3.25 µM
CCN(CC)c1ccc(NC(=O)c2cc(OC)cc(OC)c2)c(C)c1 | 1.11 µM
COc1cc(C2CC(=O)c3c([nH]c(C(=O)OCCOC(C)C)c3C)C2)cc(OC)c1OC (stereo not drawn) | 6.55 µM (inactive)
CCOC(=O)c1ccccc1NC(=O)Cn1c(-c2nonc2N)nc2ccccc21 | 0.296 µM
CCCCNc1ncnc2c1cnn2-c1ccccc1 | 2.39 µM
CCCSc1nnc(Sc2nnnn2-c2ccccc2)s1 | 1.28 µM
CCCCOC(=O)c1[nH]c2c(c1C)C(=O)CC(c1cc(OC)c(OC)c(OC)c1)C2 (stereo not drawn) | 18.7 µM (inactive)
COc1ccc(S(=O)(=O)Nc2cc(Cl)ccc2OC)cc1 | 1.01 µM
CCOC(=O)C(C)Sc1nc2c(cnn2-c2ccc(C)cc2)c(=O)[nH]1 (stereo not drawn) | > 40 µM (inactive)
CCCCOc1ccccc1NC(=O)Cn1c(-c2nonc2N)nc2ccccc21 | 0.733 µM
CC(C)OCCCNc1ncnc2c1[nH]c1ccc(F)cc12 | 2.02 µM
Cc1cc(C)n(-c2ccc(C(=O)Nc3ccc(S(=O)(=O)NCc4ccco4)cc3)cc2)n1 | 5.24 µM (inactive)
COc1cccc(N2CCN(C(=O)c3[nH]c(C)c(C(C)=O)c3C)CC2)c1 | 1.74 µM
CSC(=Nc1ccccc1)c1c(O)n(C)c(=O)n(C)c1=O | 17.8 µM (inactive)
COc1ccc(C(=O)N2CCN(c3cccc(Cl)c3)CC2)c(OC)c1 | 8.58 µM (inactive)

Compound | CC50
CCOc1ccc(S(=O)(=O)n2cnc3cc(C)c(C)cc32)cc1 | 4.83 µM
Cn1c(CN2CCOCC2)nc2cc(NC(=O)c3ccc(Cl)cc3)ccc21 | 1.26 µM
c1ccc(-c2cccc(-c3ccccn3)n2)nc1 | 1.08 µM
c1ccc2c(c1)[nH]c1c(N3CCCC3)ncnc12 | 13.3 µM (inactive)
O=C(Nc1nnc(-c2cccs2)o1)c1cccc(C(F)(F)F)c1 | 25.7 µM (inactive)
CCCCCCn1c(NCC)nc2c1c(=O)n(C)c(=O)n2C | 2.83 µM
CCCCOc1ccc(C(=O)Nc2ccncc2)cc1 | 1.79 µM
COc1ccc(C(NC(C)=O)c2ccc3cccnc3c2O)c(OC)c1 (stereo not drawn) | 3.15 µM
Cc1cc(NC(c2cccnc2)c2ccc3cccnc3c2O)no1 (stereo not drawn) | 3.25 µM
Cc1nc2ccc(S(=O)(=O)Nc3ccccc3C)cc2s1 | 8.95 µM (inactive)
Cc1cccc(N2CCN(C(=O)c3ccncc3)CC2)c1C | 2.78 µM
C=CCNc1nc2c(c(=O)n(C)c(=O)n2C)n1CCCCCC | 2.76 µM
CCOC(=O)c1[nH]c(C)c(C(=O)Nc2ccccc2F)c1C | 1.42 µM
CCOC(=O)c1[nH]c(C)c(C(=O)Nc2cc(Cl)ccc2C)c1C | 0.248 µM
COc1cccc(Cn2c(-c3nonc3N)nc3ccccc32)c1 | 1.06 µM
CCOC(=O)c1ccc(NC(=O)c2ccc(CN3CCOCC3)cc2)cc1 | 5.13 µM (inactive)
Cc1noc(C)c1CSc1nc2[nH]ncc2c(=O)n1-c1ccccc1 | 0.188 µM
CCOC(=O)N1CCN(C(=O)c2ccccc2-c2ccccc2)CC1 | 1.91 µM
Cc1c(C(=O)N2CCOCC2)[nH]c2c1C(=O)CC(c1ccccc1Cl)C2 (stereo not drawn) | 1.6 µM
CCOC(=O)C1CCN(C(c2cccnc2)c2c(NC(=O)c3ccco3)sc(C)c2C)CC1 (stereo not drawn) | > 40 µM (inactive)
C=CCn1c(SCc2c(C)noc2C)nc2cc(C(=O)O)ccc2c1=O | 3.4 µM
COCCNc1nc2c(c(=O)n(C)c(=O)n2C)n1Cc1cccc(C)c1 | 25.6 µM (inactive)

Compound | CC50
CCOc1ccccc1NC(=O)c1cccc(NC(=O)c2ccco2)c1 | 1.27 µM
COc1ccc2nc(NC(=O)c3cccc(OCc4c(C)noc4C)c3)sc2c1 | 1.6 µM
COc1ccc(CCNc2nnc(Sc3nnnn3-c3ccccc3)s2)cc1OC | 0.875 µM
N=c1c2c(n(Cc3ccc(Cl)cc3)c3c1CCC3)CCC2 | 2.06 µM
CCOc1ccc(Nc2cc(C)nc(-n3nc(C)cc3C)n2)cc1 | 0.191 µM
CCOC(=O)c1c(C)c(C(=O)Nc2ccc3c(c2)OCCO3)c(C)n1CC | 7.96 µM (inactive)
c1csc(CCNc2ncnc3sc4c(c23)CCC4)c1 | 13.2 µM (inactive)
CC(=O)Nc1ccccc1N(C)S(=O)(=O)c1ccc(C)cc1 | 4.57 µM
CCCCCCn1ccc(=N)cc1 | 5.08 µM (inactive)
Cc1noc(C)c1CSc1nc2ccccc2c(=O)n1-c1ccccc1 | 2.28 µM
CNc1nc2c(c(=O)n(C)c(=O)n2C)n1Cc1ccccc1 | 7.54 µM (inactive)
Cc1nn(C)c(C)c1CNC(=O)c1nn2c(c1Cl)NC(c1cccs1)CC2C(F)(F)F (stereo not drawn) | 15.2 µM (inactive)
COc1ccc(NC(=O)c2cnc(C)cn2)c2ncccc12 | 5.63 µM (inactive)
O=C(Cn1cnc2c(cnn2-c2ccccc2)c1=O)NCc1ccccc1 | 9.12 µM (inactive)
O=c1cc(CSc2nnc(-c3cccs3)n2Cc2ccccc2)nc2sc3ccccc3n12 | 4.96 µM
Oc1ccc(COCc2ccccc2)c2cccnc12 | 3.06 µM
Cc1nnc(NC(=O)CSc2nccn2-c2cccc(C)c2C)s1 | 2.04 µM
CCOC(=O)c1[nH]c(C)c(C(=O)Nc2ccc(C)c(F)c2)c1C | 7.19 µM (inactive)
COC(=O)C1=C(C)N(c2ccc(Cl)c(Cl)c2)C(=O)C1 | 5.37 µM (inactive)
CC(C)C(=O)Nc1ccc(C(=O)NCc2cccnc2)cc1 | 3.87 µM
